Measurements from patent US20030096957A1, “AFX (zeta) transcription factor splice form” (priority 2001, published 2003).

Columns and labels:
Format in all cases: cell-based, human
[1] = tested on: AFXζ-induced PEPCK IRS-SEAP activity; assay: PEPCK IRS-SEAP reporter assay in HepG2 cells transfected with AFXζ
Method: (§1) FIG. 4. Effect of insulin on the transcriptional activity of AFXζ. HepG2 cells were transiently transfected with pcDNA6/His-AFXζ and PEPCK p-SEAP (A) or PEPCK IRS-SEAP (B). Twenty-four hours after transfection, cells were treated with insulin at the indicated concentration in fresh media and incubated for another 15-18 hours. SEAP and β-galactosidase activities were measured. The relative activation levels were standardized by comparison to the reporter activity from transfected cells without insulin treatment (A) or untreated cells transfected with the reporter alone (B). All values represent the means±S.D. of 3 independent experiments.
(§2) FIG. 6. Effect of AICAR on the transcriptional activity of AFXζ. A. HepG2 cells were transiently transfected with AFXζ and PEPCK p-SEAP (A) or PEPCK IRS-SEAP (B). Twenty-four hours after transfection, cells were treated with AICAR at indicated concentration in fresh media and incubated for another 15-18 hours. SEAP and β-galactosidase activities were measured. The relative activation levels were standardized by comparison to the activity from cells without AICAR treatment (A) or untreated cells transfected with the reporter alone (B). All values represent the means±S.D. of 3 independent experiments.
(§3) Double-stranded DNA fragments containing each of the IRS elements from the promoters of PEPCK, IGFBP- 1 and G6Pase were cloned into the Nhe I/Bgl II site of pSEAP2-promoter vector (Clontech). Dissected fragments of the PEPCK and IGFBP-1 IRS elements, referred as PEPCK-a, PEPCK-b and IGFBP-1a, IGFBP-1b, respectively, were cloned into the same site of pSEAP2-promoter. […]
The human hepatoma cell line HepG2 was cultured in Dulbecco's Modified Eagle's Medium (DMEM) with 10% Fetal Bovine Serum (FBS, Life Technologies). […] Secreted alkaline phosphatase (SEAP) and β-galactosidase activities were measured using Phospha-Light and Galacto-Star systems (Tropix Inc., Bedford, Mass.), respectively.

[2] = tested on: AFXζ-induced PEPCK p-SEAP activity; assay: PEPCK p-SEAP reporter assay in HepG2 cells transfected with AFXζ
Method: as §1
FIG. 5. Effect of bpV (peroxovanadate) and PKB on the transcriptional activity of AFXζ. A. HepG2 cells were transiently transfected with PEPCK p-SEAP and pcDNA6/His-AFXζ. Twenty-four hours after transfection, cells were treated with bpV at the indicated concentration in fresh media and were incubated for another 15-18 hours. The relative activation level was standardized by comparison to the reporter activity from transfection without bpV treatment. B. HepG2 cells were transiently cotransfected with the reporter constructs and pcDNA6/His-AFXζ with (filled bars) or without (open bars) the plasmid encoding myr-Akt1, which constitutively expresses active PKB. Forty-eight hours after transfection, SEAP and β-galactosidase activities were measured. The relative activation levels were standardized comparing with the activity from corresponding transfection with reporter alone. All values represent the means±S.D. of 3 independent experiments.
as §2
as §3, with “pSEAP2-promoter. In addition, a 501 bp fragment corresponding to the human PEPCK 5′ regulatory sequence (−458 to +43 relative to the transcription start site, abbreviated as PEPCK p) was cloned into the Bgl II/EcoR I site of the same vector.” for “pSEAP2-promoter.”

HepG2 cells = tested on: HepG2 cells
Method: The human hepatoma cell line HepG2 was cultured in Dulbecco's Modified Eagle's Medium (DMEM) with 10% Fetal Bovine Serum (FBS, Life Technologies). Transient transfection experiments were performed in DMEM supplemented with 10% dialyzed FBS in 24-well plates. A DNA construct (0.2 μg unless otherwise specified) corresponding to IRS-SEAP, pcDNA6/His-AFXα or -AFXζ and CMV-β was added. Each set of reporter assay includes a transfection in which no AFX expression construct was added. In experiments where PKB effect was tested, 0.2 μg myr-Aktl in pUSEamp(+) (Upstate Biotechnology, Lake Placid, N.Y.), which constitutively expresses activated PKB, was included. Lipofectamine 2000 reagent (Life Technologies) was used for DNA transfection following the manufacturer's instruction. For experiment in which the cells were treated with soluble agents, the medium was changed 24 hours after the transfection. Cells were then treated with appropriate concentrations of bpV [potassium bisperoxo(1,1 0-phenanthroline) oxovanadate(V), Alexis Biochemicals, San Diego, Calif.], porcine insulin, or AICAR (5-aminoimidazole-4-carboxamide-1-β-D-ribofuranoside, Sigma, St. Louis, Mo.) in fresh media for another 15-18 hours. Secreted alkaline phosphatase (SEAP) and β-galactosidase activities were measured using Phospha-Light and Galacto-Star systems (Tropix Inc., Bedford, Mass.), respectively.

NC(=O)c1ncn([C@@H]2O[C@H](CO)[C@@H](O)[C@H]2O)c1N [AICAR, 5-aminoimidazole-4-carboxamide-1-β-D-ribofuranoside]
induced PEPCK IRS-SEAP activity, % of the stimulation ascribed to transfected AFXζ ([1]; HepG2, 200 μM AICAR): 20% | transcriptional activity of AFXζ on the PEPCK promoter, % of untreated cells ([2]; HepG2, 200 μM AICAR): 48%

O.O.O.OO.OO.[K+].[OH-].[V].c1cnc2c(c1)ccc1cccnc12 [bpV, potassium bisperoxo(1,1 0-phenanthroline) oxovanadate(V)]
AFXζ-induced PEPCK p-SEAP reporter activity ([2]; HepG2, 5 μM bpV): below the basal level | lowest concentration repressing AFXζ-induced PEPCK p-SEAP reporter gene activity ([2]; HepG2, 15-18 hours): 0.5 µM | concentration with toxicity in HepG2 cells (reduction of control galactosidase activity) (HepG2 cells): above 5 μM

insulin: porcine insulin used to treat transfected HepG2 cells
AFXζ-induced PEPCK IRS-SEAP reporter activity ([1]; HepG2, 200 nM insulin): to the basal level | PEPCK IRS-SEAP activity ([1]; HepG2 cells in which exogenous AFXζ had not been introduced): repressed | induced PEPCK p-SEAP activity compared with the untreated cells ([2]; HepG2, increasing concentrations of insulin, 15-18 hours): 50%
